This is an account of results in publication PMC6627609, “Targeting Quorum Sensing: High-Throughput Screening to Identify Novel LsrK Inhibitors” (International Journal of Molecular Sciences, 2019).

The inhibition is the drop in the measured response relative to a control, in per cent. By IC50 is commonly meant the midpoint of a concentration-inhibition curve. Low values mean higher potency, high ones lower potency.

Structures can show the parent of a compound that is named as a salt.

The target in this experiment is LsrK (Salmonella typhimurium, UniProt Q8ZKQ6). Description: biochemical. It counts as biochemical, S. typhimurium. The following applies: for Inhibition (%): 50 µM.
Sequence of LsrK (Q8ZKQ6 whole entry): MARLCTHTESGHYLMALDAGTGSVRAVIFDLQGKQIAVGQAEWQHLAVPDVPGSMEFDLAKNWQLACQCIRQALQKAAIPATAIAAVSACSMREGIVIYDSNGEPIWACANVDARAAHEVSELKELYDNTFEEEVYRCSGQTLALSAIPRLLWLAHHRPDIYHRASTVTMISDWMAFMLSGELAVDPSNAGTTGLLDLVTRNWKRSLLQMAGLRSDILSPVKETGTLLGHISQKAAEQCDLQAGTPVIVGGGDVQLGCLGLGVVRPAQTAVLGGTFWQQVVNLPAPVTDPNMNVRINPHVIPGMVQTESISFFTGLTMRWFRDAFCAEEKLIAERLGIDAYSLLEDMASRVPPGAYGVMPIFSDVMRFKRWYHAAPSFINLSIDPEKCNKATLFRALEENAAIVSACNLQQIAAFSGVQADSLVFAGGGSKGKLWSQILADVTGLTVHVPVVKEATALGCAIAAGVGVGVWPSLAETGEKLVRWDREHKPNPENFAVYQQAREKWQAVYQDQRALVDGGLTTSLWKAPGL

`CC(C)OC(=O)C(C)(C)Oc1ccc(C(=O)c2ccc(Cl)cc2)cc1` [FENOFIBRATE]: the inhibition at 50 µM stood at 1%.
For `CC(C)(C(=O)O)c1ccc(C(O)CCCN2CCC(C(O)(c3ccccc3)c3ccccc3)CC2)cc1` (stereo not shown) [FEXOFENADINE HYDROCHLORIDE], the inhibition at 50 µM worked out at 0%.
For the molecule `CC(C)(C)NC(=O)[C@H]1CC[C@H]2[C@@H]3CC[C@H]4NC(=O)C=C[C@]4(C)[C@H]3CC[C@]12C` [FINASTERIDE], the inhibition at 50 µM is 1%.
The same measure, in the same setting: the result for `O=c1c(O)c(-c2ccc(O)c(O)c2)oc2cc(O)ccc12` [FISETIN] reads 33%.
For `CS(=O)(=O)c1ccc([C@@H](O)[C@@H](CF)NC(=O)C(Cl)Cl)cc1` [FLORFENICOL], the inhibition at 50 µM came to 2%.
Regarding `O=c1[nH]c(=O)n([C@H]2C[C@H](O)[C@@H](CO)O2)cc1F` [FLOXURIDINE], the inhibition at 50 µM came out at 0%.
Same read-out and setting: the result for `Nc1[nH]c(=O)ncc1F` [FLUCYTOSINE] reads 0%.
On to `Nc1nc(F)nc2c1ncn2[C@@H]1O[C@H](COP(=O)(O)O)[C@@H](O)[C@@H]1O` [FLUDARABINE PHOSPHATE], for which the inhibition at 50 µM was 0%.
Consider `CC(=O)OCC(=O)[C@@]1(O)CC[C@H]2[C@@H]3CCC4=CC(=O)CC[C@]4(C)[C@@]3(F)[C@@H](O)C[C@@]21C` [FLUDROCORTISONE ACETATE], for which the inhibition at 50 µM was 2%.
As for `O=C(O)c1ccccc1Nc1cccc(C(F)(F)F)c1` [FLUFENAMIC ACID], the inhibition at 50 µM is 62%.
For `CC(=O)OCC(=O)[C@@]12OC(C)(C)O[C@@H]1C[C@H]1[C@@H]3C[C@H](F)C4=CC(=O)C=C[C@]4(C)[C@@]3(F)[C@@H](O)C[C@@]12C` [FLUOCINONIDE], the inhibition at 50 µM stood at 3%.
For `O=C1OC2(c3ccc(O)cc3Oc3cc(O)ccc32)c2ccccc21` [FLUORESCEIN], the inhibition at 50 µM was found to be 1%.
As to `O=c1[nH]cc(F)c(=O)[nH]1` [FLUOROURACIL], the inhibition at 50 µM is 0%.
The same measure, in the same setting: the result for `CC(C)C(=O)Nc1ccc([N+](=O)[O-])c(C(F)(F)F)c1` [FLUTAMIDE] reads 2%; that for `CC(C)n1c(/C=C/C(O)CC(O)CC(=O)O)c(-c2ccc(F)cc2)c2ccccc21` (stereo not shown) [FLUVASTATIN], 6%; that for `Nc1nc(=O)c2nc(CNc3ccc(C(=O)N[C@@H](CCC(=O)O)C(=O)O)cc3)cnc2[nH]1` [FOLIC ACID], 90%.
As for `O=C(O)P(=O)(O)O` [FOSCARNET SODIUM], the inhibition at 50 µM was 1%.
Still for that read-out and setting: as for `C[C@@H]1O[C@@H]1P(=O)(O)O` [FOSFOMYCIN CALCIUM], the figure is 1%; as for `O=C(O)c1ccccc1OP(=O)(O)O` [FOSFOSAL], 0%.
Take `COc1cc2ccc(=O)oc2c(OC)c1OC` [FRAXIDIN METHYL ETHER]: the inhibition at 50 µM was determined as 1%.
Turning to `C[C@H]1C(=O)CC[C@@H]2[C@]1(C)CC[C@H]1[C@@]2(C)CC[C@@]2(C)[C@@H]3CC(C)(C)CC[C@]3(C)CC[C@]12C` [FRIEDELIN], the inhibition at 50 µM was 1%.
The same measure, in the same setting: the result for `Cc1cccc(C)c1NC(=O)c1ccccc1C(=O)O` [FTAXILIDE] reads 4%.
`CC[C@H](CC[C@@H](C)[C@H]1CC[C@H]2[C@@H]3CC[C@H]4C[C@@H](O)CC[C@]4(C)[C@H]3CC[C@]12C)C(C)C` [FUCOSTANOL]: the “Inhibition (%)” value turned out to be 1.
Regarding `Cc1cc(O)c(C=O)c2c1C(=O)Oc1c(COC(=O)/C=C/C(=O)O)c(O)c(C(=O)O)c(C)c1O2` [FUMARPRO[…]], 7 µM corresponded to half-maximal inhibition (IC50) and the inhibition at 50 µM was found to be 150%.
In the case of `CCOC(=O)c1ncn2c1CN(C)C(=O)c1cc(F)ccc1-2` [FUMAZENIL], the “Inhibition (%)” value is given as 0.
For `O=C1OC(CN2CCOCC2)CN1/N=C/c1ccc([N+](=O)[O-])o1` (stereo not shown) [FURALTADONE], the inhibition at 50 µM was 2%.
In the case of `Cl.O=c1[nH]oc2c1CCNC2` [GABOXADOL HYDROCHLORIDE], the “Inhibition (%)” value amounted to 1.
`CC[N+](CC)(CC)CCOc1cccc(OCC[N+](CC)(CC)CC)c1OCC[N+](CC)(CC)CC` [GALLAMINE TRIETHIODIDE]: the inhibition at 50 µM is 1%.
The same measure, in the same setting: as for `CC(=O)O[C@@H]1C[C@H]2C(C)(C)C(=O)C=C[C@]2(C)[C@H]2CC[C@@]3(C)[C@H](c4ccoc4)OC(=O)[C@H]4O[C@]43[C@@]21C` [GEDUNIN], the figure is 0%; as for `CO/N=C1\CN(c2nc3c(cc2F)c(=O)c(C(=O)O)cn3C2CC2)CC1CN` (stereo not shown) [GEMIFLOXACIN MESYLATE], 0%.
In the case of `O=c1c(-c2ccc(O)cc2)coc2cc(O)cc(O)c12` [GENISTEIN], the inhibition at 50 µM was 2%.
Same read-out and setting: the result for `CN(C)c1ccc(C(=C2C=CC(=[N+](C)C)C=C2)c2ccc(N(C)C)cc2)cc1` [GENTIAN VIOLET] reads 11%; that for `Cc1ccc(S(=O)(=O)NC(=O)NN2CC3CCCC3C2)cc1` (stereo not shown) [GLICLAZIDE], 1%.
For the molecule `Cc1cnc(C(=O)NCCc2ccc(S(=O)(=O)NC(=O)NC3CCCCC3)cc2)cn1` [GLIPIZIDE], the inhibition at 50 µM amounted to 1%.
On to `O=C1O[C@H](CO)[C@@H](O)[C@H](O)[C@H]1O` [GLUCONOLACTONE], for which the inhibition at 50 µM is 0%.
As to `N[C@H]1C(O)O[C@H](CO)[C@@H](O)[C@@H]1O` (stereo partly shown) [GLUCOSAMINE HYDROCHLORIDE], the inhibition at 50 µM is 1%.
Take `NC(=O)CC[C@H](N)C(=O)O` [GLUTAMINE (L)]: the “Inhibition (%)” value is on record as 0.
Regarding `N[C@@H](CCC(=O)N[C@@H](CS)C(=O)NCC(=O)O)C(=O)O` [GLUTATHIONE], the inhibition at 50 µM is 1%.
As for `C[C@H](CCC(=O)NCC(=O)O)[C@H]1CC[C@H]2[C@@H]3[C@H](O)C[C@@H]4C[C@H](O)CC[C@]4(C)[C@H]3C[C@H](O)[C@]12C` [GLYCOCHOLIC ACID], the inhibition at 50 µM stood at 1%.
Consider `C[N+]1(C)CCC(OC(=O)C(O)(c2ccccc2)C2CCCC2)C1` (stereo not shown) [GLYCOPYRROLATE], for which the inhibition at 50 µM was determined as 0%.
On to `N[C@@H](C(=O)O)[C@@H](O)[C@H](O)[C@H](O)CO` [GL[…]], for which the inhibition at 50 µM was 1%.
Take `O=c1c(O)c(-c2ccc(O)c(O)c2)oc2c(O)c(O)cc(O)c12` [GOSSYPETIN]: the inhibition at 50 µM stood at 115%.
As to `O=c1c(O)c(-c2ccc(O)c(O)c2)oc2c(O[C@@H]3O[C@H](CO)[C@@H](O)[C@H](O)[C@H]3O)c(O)cc(O)c12` [GOSSYPIN], the “Inhibition (%)” value worked out at 57.
As for `Cc1cc2c(C(C)C)c(O)c(O)c(C=O)c2c(O)c1-c1c(C)cc2c(C(C)C)c(O)c(O)c(C=O)c2c1O` [GOSSYPOL], the inhibition at 50 µM is 83%.
Consider `COC1=CC(=O)C[C@@H](C)[C@]12Oc1c(Cl)c(OC)cc(OC)c1C2=O` [GRISEOFULVIN], for which the inhibition at 50 µM was found to be 1%.
With `COc1ccccc1OCC(O)CO` (stereo not shown) [GUAIFENESIN], the inhibition at 50 µM is 0%.
Consider `N=C(N)N/N=C/c1c(Cl)cccc1Cl` [GUANABENZ ACETATE], for which the inhibition at 50 µM turned out to be 0%.
The same measure, in the same setting: the result for `CC1=C(CCC(=O)O)c2cc3[nH]c(cc4nc(cc5[nH]c(cc1n2)c(C)c5C(C)O)C(C)=C4C(C)O)c(C)c3CCC(=O)O` (stereo not shown) [HAEMATOPORPHYRIN] reads 55%.
For `CC1(C)O[C@@H]2C[C@H]3[C@@H]4CCC5=CC(=O)CC[C@]5(C)[C@@]4(F)[C@@H](O)C[C@]3(C)[C@]2(C(=O)CCl)O1` [HALCINONIDE], the inhibition at 50 µM amounted to 0%.
On the same count and under the same terms, the result for `CC1=NCCc2c1[nH]c1cc(O)ccc21` [HARMALOL HYDROCHLORIDE] reads 4%; that for `Cc1nccc2c1[nH]c1cc(O)ccc12` [HARMOL HYDROCHLORIDE], 3%.
Still for that read-out and setting: the result for `C=C1C(=O)O[C@@H]2C[C@@]3(C)CCC[C@H](C)C3=C[C@H]12` [HELENINE] reads 2%; that for `O=C1C=C2CC3(O)COc4c(ccc(O)c4O)C3=C2C=C1O` (stereo not shown) [HEMATEIN], 107%.
On to `C[N+]1(C)CCOC(O)(c2ccc(-c3ccc(C4(O)C[N+](C)(C)CCO4)cc3)cc2)C1.[Br-].[Br-]` (stereo not shown) [HEMICHOLINIUM BROMIDE], for which the “Inhibition (%)” value is given as 1.
For `COc1ccc([C@@H]2CC(=O)c3c(O)cc(O)cc3O2)cc1O` [HESPERETIN], the inhibition at 50 µM came out at 0%.
On to `COc1ccc([C@@H]2CC(=O)c3c(O)cc(O[C@@H]4O[C@H](CO[C@@H]5O[C@@H](C)[C@H](O)[C@@H](O)[C@H]5O)[C@@H](O)[C@H](O)[C@H]4O)cc3O2)cc1O` [HESPERIDIN], for which the “Inhibition (%)” value was 1.
For the molecule `COc1cc(O)c2c(=O)cc(C)oc2c1CC=C(C)C` [HETEROPEUCENIN. METHYL ETHER], the inhibition at 50 µM was determined as 1%.
For `Oc1c(Cl)cc(Cl)c(Cl)c1Cc1c(O)c(Cl)cc(Cl)c1Cl` [HEXACHLOROPHENE], the inhibition at 50 µM was determined as 112%.
`C[N+](C)(C)CCCCCC[N+](C)(C)C` [HEXAMETHONIUM BROMIDE]: the inhibition at 50 µM amounted to 2%.
Same read-out and setting: as for `CC[C@H](c1ccc(O)cc1)[C@@H](CC)c1ccc(O)cc1` [HEXESTROL], the figure is 3%; as for `CCCCCCc1ccc(O)cc1O` [HEXYLRESORCINOL], 0%.
Take `NCCc1c[nH]cn1` [HISTAMINE DIHYDROCHLORIDE]: the inhibition at 50 µM worked out at 3%.
For `C[N+]1(C)[C@@H]2CC[C@H]1C[C@@H](OC(=O)C(O)c1ccccc1)C2` (stereo partly shown) [HOMATROPINE METHYLBROMIDE], the inhibition at 50 µM was 0%.
Consider `CC[n+]1c(-c2ccccc2)c2cc(N)ccc2c2ccc(N)cc21` [HOMIDIUM BROMIDE], for which the inhibition at 50 µM is 72%.
Consider `CCN(CC)CCNc1ccc(CO)c2sc3ccccc3c(=O)c12` [HYCANTHONE], for which the inhibition at 50 µM came to 1%.
Turning to `Oc1ccc(O)cc1` [HYDROQUINONE], the inhibition at 50 µM is 0%.
In the case of `CCCCCC(=O)O[C@]1(C(C)=O)CC[C@H]2[C@@H]3CCC4=CC(=O)CC[C@]4(C)[C@H]3CC[C@@]21C` [HYDROXYPROGESTERONE CAPROATE], the inhibition at 50 µM came out at 3%.
As to `Cc1cccc(C(=O)O)c1O` [HYDROXYTOLUIC ACID], the inhibition at 50 µM came out at 1%.
With `OCCOCCN1CCN(C(c2ccccc2)c2ccc(Cl)cc2)CC1` (stereo not shown) [HYDROXYZINE PAMOATE], the inhibition at 50 µM amounted to 125%.
For `O=c1[nH]cnc2nc[nH]c12` [HYPOXANTHINE], the inhibition at 50 µM came to 2%.
On to `COc1ccc2c(C)cc(=O)oc2c1` [H[…] ETHER], for which the inhibition at 50 µM is 0%.
Turning to `Cc1cc(O)c(C=O)c(O)c1C(=O)O` [H[…]], the inhibition at 50 µM was 1%.
